In patent US10030016B2 (Sunesis Pharmaceuticals, Inc., priority 2009, dated 2018) one finds IC50 and EC50 data, which are given here for 8 compounds.

By IC50 is commonly meant the midpoint of a concentration-inhibition curve. Read a low IC50 as inhibition by little substance. Broadly, the EC50 is the concentration giving half of the maximal effect.

One experiment concerns the target PDK1 (Homo sapiens (Human), UniProt O15530). Briefly: PDK1 kinase assay (coupled PDK1/AKT/FAM-crosstide assay, IMAP fluorescence polarization). Type of experiment: biochemical. In outline: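 GST-tagged human PDK1 (aa 51-359, 0.75 nM) from insect cells activated unphosphorylated GST-AKT2 (aa 140-467–PIFtide fusion, 10 nM), which phosphorylated 100 nM FAM-crosstide; 40 μM ATP, pH 7.2 Tris/MgCl2, 30 min at 25° C. IMAP fluorescence polarization read-out; ΔmP versus compound concentration fitted with a 4-parameter curve.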
(In general: Fluorescence polarisation rises when a labelled molecule tumbles more slowly, as on binding a larger partner.)

The test system of experiment [1] is phospho-akt (Thr308) in PC-3 cells. Kind of experiment: Inhibition of phospho-akt (Thr308) in PC-3 cells, MSD phospho-akt 308 ELISA kit. Type of experiment: cell-based. The note with it: Homo sapiens, 2 hours, no serum, read-out: EC50. In outline: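 PC-3 cells (15,000/well, overnight in 10% FBS medium) treated 2 h with three-fold diluted compounds in serum-free medium; DMSO high and 5 μM wortmannin low controls. Lysates captured on BSA-blocked MSD plates overnight at 4 °C, then 1 h antibody detection at RT; phospho-Akt Thr308 read by MSD electrochemiluminescence.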
Background: An ELISA detects its analyte on a solid surface through an enzyme-linked reagent.

The mark [2] stands for this setting: inhibition of P308 Akt in PC-3 cells using MSD.
Setting [3] is: inhibition of phospo-PDK1 in vitro.
Where [4] appears, read: inhibition of P308 Akt in PC-3 cells, MSD.

Like-named read-outs stand apart in the source and are kept apart here.

Chain of PDK1 (O15530 51-359): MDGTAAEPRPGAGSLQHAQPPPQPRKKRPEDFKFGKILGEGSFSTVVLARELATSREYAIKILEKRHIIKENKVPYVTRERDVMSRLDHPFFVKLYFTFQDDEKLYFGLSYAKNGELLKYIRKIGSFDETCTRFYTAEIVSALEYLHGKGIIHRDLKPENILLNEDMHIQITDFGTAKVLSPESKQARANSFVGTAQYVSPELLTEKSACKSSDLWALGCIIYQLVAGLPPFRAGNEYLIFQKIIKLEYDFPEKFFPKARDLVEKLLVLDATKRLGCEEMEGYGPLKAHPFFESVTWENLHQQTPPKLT

Take `C[C@H](NC(=O)c1cc(C#N)cnc1NCc1ccc(-c2cnc(N)c(C3=CCNCC3)n2)cc1)c1ccc(F)cc1` [Example 233, 2-{4-[5-Amino-6-(1,2,3,6-tetrahydro-pyridin-4-yl)-pyrazin-2-yl]-benzylamino}-5-cyano-N-[(S)-1-(4-fluoro-phenyl)-ethyl]-nicotinamide]: the IC50 at PDK1 (inhibition of PDK1 in vitro) was under 100 nM. In experiment [1] (setting [2]), the 50% effective concentration (EC50) is under 1000 nM.
The compound `C[C@H](NC(=O)c1cc(C#N)cnc1NCc1ccc(-c2cnc(N)c(CCCN3CCOCC3)n2)cc1)c1ccc(F)cc1` [Example 88, 2-{4-[5-Amino-6-(3-morpholin-4-yl-propyl)-pyrazin-2-yl]-benzyl-amino}-5-cyano-N-[(S)-1-(4-fluoro-phenyl)-ethyl]-nicotinamide] displayed a concentration for half-maximal inhibition (IC50) at PDK1 (inhibition of PDK1 in vitro) of under 100 nM. Also, in experiment [1] (setting [2]), the EC50 was under 1000 nM.
Compound `CCC(=O)Nc1cnc(NCc2ccc(-c3ccc4ncnc(N)c4c3)s2)c(C(=O)NCc2ccc(F)c(F)c2)c1` [Example 8.5.2, 2-({[5-(4-aminoquinazolin-6-yl)thiophen-2-yl]methyl}amino)-N-(3,4-difluorobenzyl)-5-(propanoylamino)pyridine-3-carboxamide] registered an IC50 at PDK1 (setting [3]) of under 100 nM. In experiment [1] (setting [4]), the EC50 was in the range of 1000 to 10000 nM.
Regarding `C[C@H](NC(=O)c1cc(C(F)(F)F)cnc1NCc1ccc(-c2cnc3[nH]ncc3c2)cc1)c1ccc(F)c(F)c1` [Example 394, N-[(S)-1-(3,4-Difluoro-phenyl)-ethyl]-2-[4-(1H-pyrazolo [3,4-b]pyridin-5-yl)-benzylamino]-5-trifluoromethyl-nicotinamide], the IC50 against PDK1 (inhibition of PDK1 in vitro) was under 100 nM. Moreover, in experiment [1] (setting [2]), the 50% effective concentration (EC50) is under 1000 nM.
With `C[C@@H](NC(=O)c1nc(C#N)cnc1NCc1ccc(-c2cnc3[nH]nc(N)c3c2)cc1)c1ccc(F)c(F)c1` [Example 417, (R)-3-(4-(3-amino-1H-pyrazolo[3,4-b]pyridin-5-yl)benzylamino)-6-cyano-N-(1-(3,4-difluorophenyl)ethyl) pyrazine-2-carboxamide], on PDK1 (inhibition of PDK1 in vitro), the IC50 is 100 to 1000 nM. In addition, in experiment [1] (setting [2]), the concentration giving a half-maximal response (EC50) lay in the range of 1000 to 10000 nM.
On PDK1 (setting [3]), `Cn1ccc(Nc2ncnc3ccc(-c4ccc(CNc5ncccc5C(=O)NCc5ccc(F)c(F)c5)s4)cc23)n1` [Example 2.34, N-(3,4-difluorobenzyl)-2-(((5-(4-(1-methyl-1H-pyrazol-3-ylamino)quinazolin-6-yl)thiophen-2-yl)methyl)amino) nicotinamide] yielded a 50% inhibitory concentration (IC50) of over 5000 nM. Moreover, in experiment [1] (setting [4]), the EC50 was over 10000 nM.
Compound `O=C(NCc1ccc(F)c(F)c1)c1cccnc1NCc1cccc(-c2c[nH]c3ncncc23)c1` [Example 6.2, 2-(3-(7H-pyrrolo[2,3-d]pyrimidin-5-yl)benzylamino)-N-(3,4-difluorobenzyl)nicotinamide] gave an IC50 against PDK1 (setting [3]) of under 100 nM. For the same compound, the EC50 in experiment [1] (setting [4]) lay in the range of 1000 to 10000 nM.
As to `Nc1ncc(-c2ccc(CNc3ncc(C(F)(F)F)cc3C(=O)Nc3ccc(F)cc3)cc2)nc1O[C@@H]1CCC[C@H]1N` [Example 173, 2-{4-[5-Amino-6-((1R,2R)-2-amino-cyclopentyloxy)-pyrazin-2-yl]-benzylamino}-N-(4-fluoro-phenyl)-5-trifluoromethyl-nicotinamide], the half-inhibitory concentration (IC50) at PDK1 (inhibition of PDK1 in vitro) was under 100 nM. Moreover, in experiment [1] (setting [2]), the concentration giving a half-maximal response (EC50) is under 1000 nM.
